{"source": "patent US5041567A", "about": "“Antibacterial monic acid derivatives” (Beecham Group plc, priority 1982, dated 1991)", "key": {"Bord. bronchiseptica B09": {"tested_on": "Bord. bronchiseptica B09", "test": "MIC against veterinary bacteria in vitro", "details": "Bordetella bronchiseptica, B09, 18 h", "description": "(§1) The activity of the compounds of the Examples against various veterinarily important bacteria, was assayed in vitro using two-fold serial dilutions in Diagnostic Sensitivity Test Agar inoculated with 10^4 organisms."}, "Strep. spp. 64/848-C": {"tested_on": "Strep. spp. 64/848-C", "test": "MIC against human bacteria in vitro", "type": "cell-based", "details": "Strep. spp. 64/848-C; 5% chocolated horse blood agar, 18 hours; read-out: MIC"}, "[1]": {"tested_on": "M. suipneumoniae ATCC 25095", "test": "MIC against mycoplasma in vitro", "type": "cell-based", "details": "Mesomycoplasma hyopneumoniae, ATCC25095, 144 h; M. suipneumoniae ATCC 25095; 6 days, 37° C.; read-out: MIC"}, "M. suipneumoniae TAM 6N": {"tested_on": "M. suipneumoniae TAM 6N", "test": "MIC against mycoplasma in vitro", "type": "cell-based", "details": "Mesomycoplasma hyopneumoniae, TAM6N, 144 h"}, "Staph. aureus W2827": {"tested_on": "Staph. aureus W2827", "test": "MIC against human bacteria in vitro", "type": "cell-based", "details": "Staphylococcus aureus; Staph. aureus W2827; 5% chocolated horse blood agar, 18 hours; read-out: MIC"}, "Staph. aureus Oxford": {"tested_on": "Staph. aureus Oxford", "test": "MIC against human bacteria in vitro", "type": "cell-based", "details": "Staphylococcus aureus; Staph. aureus Oxford; 5% chocolated horse blood agar, 18 hours; read-out: MIC"}, "Strep. faecalis I": {"tested_on": "Strep. faecalis I", "test": "MIC against human bacteria in vitro", "type": "cell-based", "details": "Enterococcus faecalis; Strep. faecalis I; 5% chocolated horse blood agar, 18 hours; read-out: MIC"}, "E. coli NCTC 10418": {"tested_on": "E. coli NCTC 10418", "test": "MIC against human bacteria in vitro", "type": "cell-based", "details": "Escherichia coli, NCTC10418; E. coli NCTC 10418; agar with 5% chocolated horse blood, 18 hours, 37° C.; read-out: MIC"}, "[2]": {"tested_on": "M. suipneumoniae PW/C/210", "test": "MIC against mycoplasma in vitro", "type": "cell-based", "details": "Mesomycoplasma hyopneumoniae, 144 h; M. suipneumoniae PW/C/210; 6 days, 37° C.; read-out: MIC"}, "Strep. agalactiae SPA1": {"tested_on": "Strep. agalactiae SPA1", "test": "MIC against veterinary bacteria in vitro", "details": "Streptococcus agalactiae, SPA1, 18 h", "description": "as §1"}, "Bord. bronchiseptica B08": {"tested_on": "Bord. bronchiseptica B08", "test": "MIC against veterinary bacteria in vitro", "details": "Bordetella bronchiseptica, B08, 18 h", "description": "as §1"}, "M. suipneumoniae LABER": {"tested_on": "M. suipneumoniae LABER", "test": "MIC against mycoplasma in vitro", "type": "cell-based", "details": "Mesomycoplasma hyopneumoniae, 144 h; M. suipneumoniae LABER; 6 days, 37° C.; read-out: MIC"}, "[3]": {"tested_on": "Strep. suis (group D) SPS11", "test": "MIC against veterinary bacteria in vitro", "details": "Streptococcus suis, 18 h", "description": "as §1"}, "M. hyorhinis ATCC 23234": {"tested_on": "M. hyorhinis ATCC 23234", "test": "MIC against mycoplasma in vitro", "type": "cell-based", "details": "Mesomycoplasma hyorhinis, ATCC23234, 144 h; M. hyorhinis ATCC 23234; 6 days, 37° C.; read-out: MIC"}, "Strep. dysgalactiae SPD1": {"tested_on": "Strep. dysgalactiae SPD1", "test": "MIC against veterinary bacteria in vitro", "details": "Streptococcus dysgalactiae, SPD1, 18 h", "description": "as §1"}, "M. suipneumoniae HK(2)": {"tested_on": "M. suipneumoniae HK(2)", "test": "MIC against mycoplasma in vitro", "type": "cell-based", "details": "Mesomycoplasma hyopneumoniae, 144 h"}, "Strep. agalactiae 2788-B": {"tested_on": "Strep. agalactiae 2788-B", "test": "MIC against human bacteria in vitro", "type": "cell-based", "details": "Streptococcus agalactiae; Strep. agalactiae 2788-B; 5% chocolated horse blood agar, 18 hours; read-out: MIC"}, "[4]": {"tested_on": "Corynebacterium xerosis 9755", "test": "MIC against human bacteria in vitro", "type": "cell-based", "details": "Corynebacterium xerosis 9755; 5% chocolated horse blood agar, 18 hours; read-out: MIC"}, "[5]": {"tested_on": "Pasteurella multocida 1633", "test": "MIC against human bacteria in vitro", "type": "cell-based", "details": "Pasteurella multocida 1633; 5% chocolated horse blood agar, 18 hours; read-out: MIC"}, "E. coli E1": {"tested_on": "E. coli E1", "test": "MIC against veterinary bacteria in vitro", "details": "Escherichia coli, E1, 18 h", "description": "as §1"}, "K. aerogenes A": {"tested_on": "K. aerogenes A", "test": "MIC against human bacteria in vitro", "type": "cell-based", "details": "Klebsiella aerogenes; K. aerogenes A; 5% chocolated horse blood agar, 18 hours; read-out: MIC"}, "Sarcina lutea 8340": {"tested_on": "Sarcina lutea 8340", "test": "MIC against human bacteria in vitro", "type": "cell-based", "details": "Micrococcus luteus; Sarcina lutea 8340; 5% chocolated horse blood agar, 18 hours; read-out: MIC"}, "M. suipneumoniae MS 16": {"tested_on": "M. suipneumoniae MS 16", "test": "MIC against mycoplasma in vitro", "type": "cell-based", "details": "Mesomycoplasma hyopneumoniae, MS16, 144 h; M. suipneumoniae MS 16; 6 days, 37° C.; read-out: MIC"}, "Staph. aureus Russell": {"tested_on": "Staph. aureus Russell", "test": "MIC against human bacteria in vitro", "type": "cell-based", "details": "Staphylococcus aureus; Staph. aureus Russell; 5% chocolated horse blood agar, 18 hours; read-out: MIC"}, "E. coli ESS": {"tested_on": "E. coli ESS", "test": "MIC against human bacteria in vitro", "type": "cell-based", "details": "Escherichia coli; E. coli ESS; 5% chocolated horse blood agar, 18 hours; read-out: MIC"}, "M. dispar NCTC 10125": {"tested_on": "M. dispar NCTC 10125", "test": "MIC against mycoplasma in vitro", "type": "cell-based", "details": "144 h; M. dispar NCTC 10125; 6 days, 37° C.; read-out: MIC"}, "[6]": {"tested_on": "Staph. aureus B4 (pen. resistant)", "test": "MIC against veterinary bacteria in vitro", "details": "Staphylococcus aureus, 18 h", "description": "as §1"}, "Past. multocida PA2": {"tested_on": "Past. multocida PA2", "test": "MIC against veterinary bacteria in vitro", "details": "Pasteurella multocida, PA2, 18 h", "description": "as §1"}, "S. dublin S7": {"tested_on": "S. dublin S7", "test": "MIC against veterinary bacteria in vitro", "details": "Salmonella enterica, S7, 18 h", "description": "as §1"}, "M. hyorhinis ATCC 25021": {"tested_on": "M. hyorhinis ATCC 25021", "test": "MIC against mycoplasma in vitro", "type": "cell-based", "details": "Mesomycoplasma hyorhinis, ATCC25021, 144 h; M. hyorhinis ATCC 25021; 6 days, 37° C.; read-out: MIC"}, "Past. multocida PA1": {"tested_on": "Past. multocida PA1", "test": "MIC against veterinary bacteria in vitro", "details": "Pasteurella multocida, PA1, 18 h", "description": "as §1"}, "P. mirabilis 889": {"tested_on": "P. mirabilis 889", "test": "MIC against human bacteria in vitro", "type": "cell-based", "details": "Proteus mirabilis; P. mirabilis 889; 5% chocolated horse blood agar, 18 hours; read-out: MIC"}, "Bacillus subtilis 6633": {"tested_on": "Bacillus subtilis 6633", "test": "MIC against human bacteria in vitro", "type": "cell-based", "details": "Bacillus subtilis 6633; 5% chocolated horse blood agar, 18 hours; read-out: MIC"}, "M. suipneumoniae UCD 1": {"tested_on": "M. suipneumoniae UCD 1", "test": "MIC against mycoplasma in vitro", "type": "cell-based", "details": "Mesomycoplasma hyopneumoniae, UCD1, 144 h"}}}
{"compound": "C/C(=C\\c1ncc(-c2cccc(S(C)(=O)=O)c2)o1)C[C@@H]1OC[C@H](C[C@@H]2O[C@H]2[C@@H](C)[C@H](C)O)[C@@H](O)[C@H]1O", "note": "[Example 23, 5-m-Methylsulphonylphenyl-2-(1-normon-2-yl) oxazole A]", "values": [{"measurement": "MIC", "setting": "Bord. bronchiseptica B09", "value": 40, "unit": "µg/mL"}, {"measurement": "MIC", "setting": "Strep. spp. 64/848-C", "value": 2, "unit": "µg/mL"}, {"measurement": "MIC", "setting": "[1]", "value": 0.5, "unit": "µg/mL"}, {"measurement": "MIC", "setting": "M. suipneumoniae TAM 6N", "value": 1, "unit": "µg/mL"}, {"measurement": "MIC", "setting": "Staph. aureus W2827", "value": 16, "unit": "µg/mL"}, {"measurement": "MIC", "setting": "Staph. aureus Oxford", "value": 4, "unit": "µg/mL"}, {"measurement": "MIC", "setting": "Strep. faecalis I", "value": "> 128", "unit": "µg/mL"}, {"measurement": "MIC", "setting": "E. coli NCTC 10418", "value": "> 64", "unit": "µg/mL"}, {"measurement": "MIC", "setting": "[2]", "value": 0.5, "unit": "µg/mL"}, {"measurement": "MIC", "setting": "Strep. agalactiae SPA1", "value": 2.5, "unit": "µg/mL"}, {"measurement": "MIC", "setting": "Bord. bronchiseptica B08", "value": "> 80", "unit": "µg/mL"}, {"measurement": "MIC", "setting": "M. suipneumoniae LABER", "value": 0.5, "unit": "µg/mL"}, {"measurement": "MIC", "setting": "[3]", "value": 10, "unit": "µg/mL"}, {"measurement": "MIC", "setting": "M. hyorhinis ATCC 23234", "value": 0.5, "unit": "µg/mL"}, {"measurement": "MIC", "setting": "Strep. dysgalactiae SPD1", "value": 1.25, "unit": "µg/mL"}, {"measurement": "MIC", "setting": "M. suipneumoniae HK(2)", "value": 1, "unit": "µg/mL"}, {"measurement": "MIC", "setting": "Strep. agalactiae 2788-B", "value": 2, "unit": "µg/mL"}, {"measurement": "MIC", "setting": "[4]", "value": "> 128", "unit": "µg/mL"}, {"measurement": "MIC", "setting": "[5]", "value": 2, "unit": "µg/mL"}, {"measurement": "MIC", "setting": "E. coli E1", "value": "> 80", "unit": "µg/mL"}, {"measurement": "MIC", "setting": "K. aerogenes A", "value": "> 64", "unit": "µg/mL"}, {"measurement": "MIC", "setting": "Sarcina lutea 8340", "value": "> 128", "unit": "µg/mL"}, {"measurement": "MIC", "setting": "M. suipneumoniae MS 16", "value": 0.5, "unit": "µg/mL"}, {"measurement": "MIC", "setting": "Staph. aureus Russell", "value": 16, "unit": "µg/mL"}, {"measurement": "MIC", "setting": "E. coli ESS", "value": 4, "unit": "µg/mL"}, {"measurement": "MIC", "setting": "M. dispar NCTC 10125", "value": 0.5, "unit": "µg/mL"}, {"measurement": "MIC", "setting": "[6]", "value": 5, "unit": "µg/mL"}, {"measurement": "MIC", "setting": "Past. multocida PA2", "value": 2.5, "unit": "µg/mL"}, {"measurement": "MIC", "setting": "S. dublin S7", "value": "> 80", "unit": "µg/mL"}, {"measurement": "MIC", "setting": "M. hyorhinis ATCC 25021", "value": 0.5, "unit": "µg/mL"}, {"measurement": "MIC", "setting": "Past. multocida PA1", "value": 5, "unit": "µg/mL"}, {"measurement": "MIC", "setting": "P. mirabilis 889", "value": "> 64", "unit": "µg/mL"}, {"measurement": "MIC", "setting": "Bacillus subtilis 6633", "value": 2, "unit": "µg/mL"}, {"measurement": "MIC", "setting": "M. suipneumoniae UCD 1", "value": 1, "unit": "µg/mL"}]}
